Results published in patent USRE35904E, “Method and probes for detecting nucleoside transporter and method for producing the probes” (Governors of the University of Alberta, priority 1995, dated 1998).

What was measured:
[1] = target: T1, es nucleoside transporter (Mus musculus, UniProt Q9JIM1); assay: [3H]NBMPR equilibrium binding to L1210/B23.1 cells and its inhibition by SAENTA-fluorescein probes; conditions: 22°; for Ki: replots of Kd(app)/Bmax versus [probe], read-out: Ki (mean ± S.D.)
T1 construct: endogenous in cells; host or cells: L1210/B23.1 mouse leukemia cells
T1 sequence (Q9JIM1 1-460): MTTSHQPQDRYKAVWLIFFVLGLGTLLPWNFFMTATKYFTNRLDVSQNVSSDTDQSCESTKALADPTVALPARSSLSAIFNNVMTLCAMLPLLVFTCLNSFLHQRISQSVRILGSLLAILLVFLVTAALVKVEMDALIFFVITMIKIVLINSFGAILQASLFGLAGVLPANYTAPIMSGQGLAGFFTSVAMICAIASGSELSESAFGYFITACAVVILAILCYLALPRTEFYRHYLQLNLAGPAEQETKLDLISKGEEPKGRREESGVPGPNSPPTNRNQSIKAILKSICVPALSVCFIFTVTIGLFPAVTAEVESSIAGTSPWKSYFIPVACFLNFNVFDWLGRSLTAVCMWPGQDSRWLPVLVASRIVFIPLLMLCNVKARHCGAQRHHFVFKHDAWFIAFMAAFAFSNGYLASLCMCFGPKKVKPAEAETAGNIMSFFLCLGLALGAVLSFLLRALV

[2] = target: T1, es nucleoside transporter; assay: Flow cytometric staining of L1210/B23.1 cells (es nucleoside transporter-expressing) by SAENTA-fluorescein probe; type: cell-based; conditions: 40 nM 5-(SAENTA-X2)-fluorescein, 10 min, 4° C., pH 8.0, FIG. 8
Experimental: Flow cytometric measurements of binding of .[.SAENTA-x2 -fluorescein.]. .Iadd.SAENTA-X2-fluorescein .Iaddend.prepared as in Example 3 was carried out as in Example 4 using two clonal lines of cultured mouse leukemia L 1210 cells, L 1210/B23.1 and L 1210/MA-27.1. L 1210/B23.1 expresses NBMPR binding sites and nuclesoside transporter activity whereas L 1210/MA-27.1 cells lack both of these features.
Staining conditions were chosen to minimise non-specific fluorescence signals from L 1210/MA-27.1 cells treated with the nucleoside.
Cells were exposed for 10 min at 4° C. to phosphate-buffered (pH 8.0) salts medium containing 40 nM .[.5(SAENTA-xx2)fluorescein.]. .Iadd.5-(SAENTA-X2)-fluorescein .Iaddend.prior to flow cytometric analysis in a BD FACSan instrument; 10^5 cells were analysed. Cells in replicate assay mixtures were also exposed for 5 min at 22° C. to medium containing 10 μM NBMPR and then for 10 min at 4° C. to medium containing both NBMPR and .[.5-SAENTA-x2)-fluorescein.]. .Iadd.5-(SAENTA-X2)-fluorescein.Iaddend..
(a) Clonal lines of mouse leukemia cells were exposed for 10 min at 4° C. to phosphate buffered (pH 8.0) saline containing […] .[.5-(SAENTA-x2)-fluorescein.]. .Iadd.5-(SAENTA-X2)-fluorescein .Iaddend.(prepared as in Example 3) prior to flow cytometric analysis in a BD FACScan instrument; 10^4 cells were analysed. Cells in replicate mixtures were also exposed for 5 min at 22° C. to medium containing 10 μM NBMPR and then for 10 min at 4° C. to medium containing both NBMPR and .[.5-(SAENTA-x2)-fluorescein.]. .Iadd.5-(SAENTA-X2)-fluorescein.Iaddend.. L 1210/B23.1 cells express the es nucleoside transport system whereas L 1210/MA-27.1 cells lack that activity.

nucleoside transporter [3] = target: T2, nucleoside transporter (Homo sapiens, UniProt Q99808); assay: Inhibition of [3H]cytosine arabinoside (araC) influx in RC2a leukaemic cells; type: cell-based
T2 construct: The human leukaemic cell line RC2a, of myelomonocytic origin; endogenous in cells; host or cells: RC2a human leukaemic (myelomonocytic) cells
T2 sequence (Q99808 1-456): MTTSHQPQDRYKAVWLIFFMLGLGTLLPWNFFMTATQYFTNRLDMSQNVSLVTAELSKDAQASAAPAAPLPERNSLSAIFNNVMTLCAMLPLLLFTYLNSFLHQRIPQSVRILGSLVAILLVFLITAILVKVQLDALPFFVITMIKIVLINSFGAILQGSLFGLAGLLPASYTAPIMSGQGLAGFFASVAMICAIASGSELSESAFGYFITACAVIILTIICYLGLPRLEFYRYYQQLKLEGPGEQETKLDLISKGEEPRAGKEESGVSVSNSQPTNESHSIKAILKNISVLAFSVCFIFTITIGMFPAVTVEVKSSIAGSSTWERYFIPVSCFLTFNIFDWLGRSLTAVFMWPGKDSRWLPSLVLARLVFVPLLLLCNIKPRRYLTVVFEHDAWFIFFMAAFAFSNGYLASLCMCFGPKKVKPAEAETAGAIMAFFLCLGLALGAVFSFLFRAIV
Experimental: . Unlabelled NBMPR was supplied by Sigma (St. Louis, MO, U.S.A.). [^3 H]Cytosine arabinoside (araC) and [^14 C]polyethylene glycol were obtained from Amersham, Buckinghamshire, England. Dilazep was a gift from Roche, Dee Why, Australia. Incubations were carried out using imidazole-buffered saline (IBS; […], 5 mM KCl, 5 mM imidazole-Cl, 1 mM MgCl2 and 5 mM glucose, pH 7.4).
The human leukaemic cell line RC2a, of myelomonocytic origin (Bradley et al., 1982 Brit. J. Haematol., vol. 51, pp. 595-604) was maintained in RPMI 1640 medium containing 10% foetal calf serum, 2 mM glutamine, 20 mM HEPES (pH 7.4) (Flow Laboratories, Sydney, Australia) and 20 mg/l gentamycin sulphate (Roussell, Castle Hill, Australia). Cell densities were maintained below 5×10^5 /ml. Cells were collected by centrifugation and resuspended in buffered saline for assays.
Prior to measurement of [^3 H]araC uptake, RC2a leukaemic cells were treated at 20° C. for 10 min with graded concentrations (0-0.05 μM) of .[.SAENTA-x2 -fluorescein.]. .Iadd.SAENTA-X2-fluorescein .Iaddend.prepared as in Example 3. Treated cells (100 μl, 5×10^7 cells/ml) were added to [^3 H]araC (100 μl) in IBS medium in 1.5 ml centrifuge tubes to give a final araC concentration of 50 μM. [^3 H]araC uptake was ended 20 sec. later by the addition of 800 μl of ice-cold dilazep (750 μM) (Jamieson et al., 1989). Phthalate oil was added immediately and the tube spun at 8000 g for 2 min. Medium above the oil was aspirated, the tube walls washed, and the oil above the cell pellet removed. Pellets were solubilized using 0.5M NaOH and the [^3 H]araC contents were measured by liquid scintillation counting. […]
The ability of .[.SAENTA-x2 -fluorescein.]. .Iadd.SAENTA-X2-fluorescein .Iaddend.to inhibit influx of nucleoside was assessed in cultured RC2a leukaemic cells by treating the cells for 10 min with graded concentrations of .[.SAENTA-x2 -fluorescein.]. .Iadd.SAENTA-X2-fluorescein .Iaddend.(0 to 0.25 μM). Uptake rates of araC (50 μM) were then determined over 20 s at 20° C. as described above.

nucleoside transporter [4] = target: T2, nucleoside transporter; assay: Inhibition of [3H]NBMPR binding to RC2a leukaemic cells; conditions: 30 min, 37° C., FIG. 5; read-out: half-maximal inhibition of site-specific [3H]NBMPR binding
Experimental: [^3 H]NBMPR from Moravek Biochemicals Brea, CA, U.S.A. was purified by reverse phase HPLC using methanol-water as solvent. Unlabelled NBMPR was supplied by Sigma (St. Louis, MO, U.S.A.). [^3 H]Cytosine arabinoside (araC) and [^14 C]polyethylene glycol were obtained from Amersham, Buckinghamshire, England. Dilazep was a gift from Roche, Dee Why, Australia.
The free [^3 H]NBMPR concentration in the medium above the oil was also measured. Non-specific binding of [^3 H]NBMPR was measured in parallel incubations of cells treated for 5 min at 37° C. with 5 μM NBMPR before the addition of [^3 H]NBMPR. Specific binding was calculated by subtracting the amount of non-specific binding (determined in the presence of 5 μM unlabelled NBMPR) from total [^3 ]NBMPR binding in all analyses.

nucleoside transporter [5] = target: T2, nucleoside transporter; assay: Equilibrium binding of SAENTA-fluorescein probe to RC2a cells by flow cytometry, with displacement by NBMPR or dilazep
[6] = target: T3, es nucleoside transporter (Sus scrofa, UniProt A0A287B2T6); assay: Inhibition of site-specific [3H]NBMPR binding to unsealed pig erythrocyte ghosts; conditions: for IC50: 2 nM [3H]NBMPR, 20 min, 22° C., pH 7.4, read-out: IC50 for inhibition of site-bound [3H]NBMPR; for inhibition of NBMPR binding to the nucleoside transporter: result in words
T3 construct: immediately processed by conventional methods for recovery of erythrocytes; tissue Gainers, Edmonton, Alberta, Canada (blood of domestic pigs); host or cells: pig erythrocytes, unsealed ghosts
Experimental: Blood from adult domestic pigs (Gainers, Edmonton, Alberta, Canada) was collected into 0.2 vol. of anticoagulant solution (90 mM-sodium citrate/16 mM-citric acid/16 mM-monosodium phosphate/2 mM-adenine/12 mM-inosine) and immediately processed by conventional methods for recovery of erythrocytes.
Unsealed ghosts were prepared at 4° C. by the procedure of Steck & Kant, (1974), Methods in Enzymology, vol. 31, pp. 172-180, modified by the inclusion of 0.1 mM phenylmethane sulphonyl fluoride, and stored at -70° C.
NBMPR was prepared as described by Paul, Chen & Paterson (1975), J. Med Chem., vol. 18, pp. 968-973. [G-^3 H]NBMPR (23 Ci/mmol), obtained from Moravek Biochemicals, Brea, CA., U.S.A., was purified by using a Spheri-10 RP18 100 mm×4.6 mm column (Brownlee Labs, Santa Clara, CA,. U.S.A.), eluted with a methanol/water gradient.
Binding to unsealed ghosts was determined by a filtration assay, as described by Agbanyo, Cass & Paterson (1988) Mol. Pharmacol., vol. 33, pp. 332-337. Assay mixtures (final volume, 1.2 ml; two samples per condition) contained 2 nM-[^3 H]NBMPR, graded concentrations of test compound and unsealed ghosts (10 μg of protein/ml) in 5 mM-sodium phosphate buffer, pH 7.4, at 22° C., and, for determination of non-specific binding, 5 μM non-radioactive NBMPR was present. After a 20 min incubation at 22° C., membrane material from 1 ml portions of assay mixtures was collected by vacuum filtration on Whatman GF/C microfibre filters, which were then rapidly washed three times with 2 ml portions of ice-cold 5 mM-sodium phosphate buffer. The filters were placed in scintillation vials and assayed for radioactivity after a 16 h incubation in 8 ml of Triton X-100-based scintillation fluid as described by Pande (1976) Anal. Biochem., vol. 74, pp. 25-34. Protein was determined by the bicinchoninic acid method of Smith et al. (1985) Anal. Biochem., vol. 150, pp. 76-85.
Correction for non-specific binding was determined by performing the assay in the presence of 5 μM-non radioactive NBMPR. Replicate mixtures contained ghosts, 2 nM-[^3 H]NBMPR, graded concentrations of SAENTA or acetyl SAENTA (prepared as in Example 1) and, in mixtures used for non-specific binding, 5 μM-non radioactive NBMPR. Values for [^3 H]NBMPR specifically bound in the presence of inhibitor are expressed as percentages of that bound in its absence.
IC50 values were determined from plots of % site-bound NBMPR in presence of test compound against concentration of test compound.

T3 sequence (A0A287B2T6 1-457): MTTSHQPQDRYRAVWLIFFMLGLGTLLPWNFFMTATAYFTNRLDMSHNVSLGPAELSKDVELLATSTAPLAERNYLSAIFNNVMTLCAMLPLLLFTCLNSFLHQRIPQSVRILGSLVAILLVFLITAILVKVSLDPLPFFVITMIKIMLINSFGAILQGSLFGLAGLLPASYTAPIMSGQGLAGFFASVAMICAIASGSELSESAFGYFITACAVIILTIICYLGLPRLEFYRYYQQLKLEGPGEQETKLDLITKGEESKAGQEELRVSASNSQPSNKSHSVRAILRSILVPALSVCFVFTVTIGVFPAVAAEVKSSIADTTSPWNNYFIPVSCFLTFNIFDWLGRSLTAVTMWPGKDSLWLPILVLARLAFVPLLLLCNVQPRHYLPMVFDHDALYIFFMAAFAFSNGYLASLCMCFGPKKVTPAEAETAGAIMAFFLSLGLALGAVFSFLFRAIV

O=C1OC2(c3ccc(O)cc3Oc3cc(O)ccc32)c2cc(NC(=S)NCCSC[C@H]3O[C@@H](n4cnc5c(NCc6ccc([N+](=O)[O-])cc6)ncnc54)[C@H](O)[C@@H]3O)ccc21 [6-(SAENTA-X2)-fluorescein]
Ki [1]: 9.9 ± 2.8 nM

O=C(O)c1cc(NC(=S)NCCSC[C@H]2O[C@@H](n3cnc4c(NCc5ccc([N+](=O)[O-])cc5)ncnc43)[C@H](O)[C@@H]2O)ccc1-c1c2ccc(=O)cc-2oc2cc(O)ccc12 [SAENTA-X2-fluorescein]
distinction of L1210/B23.1 from L1210/MA-27.1 cells by cell staining [2]: able to distinguish clearly | IC50 (nucleoside transporter [3]; 50 μM araC, 20° C., 10 min pretreatment): ~40 nM | inhibition of influx of [3H]araC (nucleoside transporter [3]; 50 μM araC, 20° C., 10 min exposure to 0.25 μM probe): 90% | IC50 (nucleoside transporter [4]): 50 to 100 nM | EC50 (nucleoside transporter [5]; RC2a cells 1×10^5/ml, room temperature, n=3, ±1 SD, FIG. 7, read-out: concentration giving half-maximal binding (NBMPR-sensitive)): 6.2 ± 1 nM | time to equilibrium of cell bound fluorescence (nucleoside transporter [5]; all ligand concentrations, room temperature): 10 min | time to equilibrium between bound and free probe (nucleoside transporter [5]; lowest ligand concentration, room temperature): 10 min

O=[N+]([O-])c1ccc(CSc2ncnc3c2ncn3C2OC(CO)C(O)C2O)cc1 (centres unmarked) [NBMPR, nitrobenzyl thioinosine, reference compound]
Kd ([1]; Scatchard analysis (LIGAND)): 0.085 ± 0.015 nM

COc1cc(C(=O)OCCCN2CCCN(CCCOC(=O)c3cc(OC)c(OC)c(OC)c3)CC2)cc(OC)c1OC [dilazep, reference compound]
effectiveness in stopping araC influx (nucleoside transporter [3]; dilazep added to cells prior to [3H]araC): effectiveness of dilazep in stopping influx was confirmed | displacement of SAENTA-X2-fluorescein binding (nucleoside transporter [5]; 2 μM dilazep versus 1 μM NBMPR): as effective as NBMPR

O=C(CCCCCNC(=O)c1ccc2c(c1)C1(OC2=O)c2ccc(O)cc2Oc2cc(O)ccc21)NCCSC[C@H]1O[C@@H](n2cnc3c(NCc4ccc([N+](=O)[O-])cc4)ncnc32)[C@H](O)[C@@H]1O [6-(SAENTA-X8)-fluorescein, 5'-S-[2-(6-(Fluorescein-6-carboxamido)hexanoylamino)ethyl]-N^6-(4-nitrobenzyl)-5'-thioadenosine]
Ki [1]: 1.7 ± 0.5 nM

O=C(CCCCCNC(=O)c1ccc2c(c1)C(=O)OC21c2ccc(O)cc2Oc2cc(O)ccc21)NCCSC[C@H]1O[C@@H](n2cnc3c(NCc4ccc([N+](=O)[O-])cc4)ncnc32)[C@H](O)[C@@H]1O [5-(SAENTA-X8)-fluorescein, 5'-S-[2-(6-(Fluorescein-5-carboxamido)hexanoylamino)ethyl]-N^6-(4-nitrobenzyl)-5'-thioadenosine]
Ki [1]: 0.8 ± 0.21 nM

CC(=O)NCCSC[C@H]1O[C@@H](n2cnc3c(NCc4ccc([N+](=O)[O-])cc4)ncnc32)[C@H](O)[C@@H]1O [acetyl SAENTA]
IC50 [6]: 76 nM | inhibition of NBMPR binding to the nucleoside transporter [6]: strong inhibition

NCCSC[C@H]1O[C@@H](n2cnc3c(NCc4ccc([N+](=O)[O-])cc4)ncnc32)[C@H](O)[C@@H]1O [SAENTA, 5'-S-(2-aminoethyl)-6-N-(4-nitrobenzyl)-5'-thioadenosine]
IC50 [6]: 330 nM | inhibition of NBMPR binding to the nucleoside transporter [6]: strong inhibition
